{
  "source": "patent US10111880B2",
  "about": "“Compounds for the treatment of diabetes and disease complications arising from same” (BEN-GURION UNIVERSITY OF THE NEGEV RESEARCH AND DEVELOPMENT …, priority 2013, dated 2018)",
  "key": {"[1]": {"test_system": "STZ-induced diabetic ICR mice", "assay": "Glucose tolerance test in STZ mice after short course (2 weeks) AGS treatment", "format": "in vivo, mouse", "description": "(§1) Eight weeks-old female ICR mice were injected intraperitoneally (IP) with Streptozotocin (STZ), at a dose of 40 mg/Kg, for 5 consecutive days. The following day and onward, mice were administered the AGS compounds (499 or 500, as indicated), at a dose of 6 mg/Kg, either subcutaneously or orally, every other day. Blood glucose levels were monitored daily.\n(§2) After the establishment of diabetes (i.e. three consecutive blood glucose measurements of >200 mg/dL), mouse groups were further sub-divided into 2 sub-groups, one of each received insulin (gradual administration of 0.5-6 units/Kg, over a period of 2 weeks) subcutaneously, every other day. Blood glucose levels were monitored daily.\nGlucose tolerance tests were also performed as follows: After two weeks mice were fasted for 12 hours, then injected with D-glucose (1.5 g/Kg, IP) and blood glucose levels were examined at 0, 10, 20, 30, 60, 90 and 120 minutes, in order to evaluate pancreatic function."}, "[2]": {"test_system": "insulin expressing beta islets", "assay": "Immunofluorescence of pancreatic slices with anti-insulin antibody, insulin expressing beta islets in mice", "format": "in vivo, mouse", "description": "The light grey (originally red) stains insulin producing cells, and the darker grey (originally blue) is for DAPI staining. Density of insulin staining per area was measured using “Image J” software (D-E). The results are mean±S.E.; n=4. ***p<0.005. Magnification: ×10."}, "[3]": {"test_system": "STZ-induced diabetic Wistar rats", "assay": "Blood glucose in STZ-induced diabetic rats treated with AGS-500", "format": "in vivo, rat", "description": "The effect of compounds of the present invention on diabetes per se, and disease complications arising as a result of diabetes was evaluated. Streptozotocin treatment of mice and rats are known in vivo diabetes models. Intraperitoneal injections of reduced STZ concentrations (35 mg/kg) was evaluated in mice and rats, in order to determine whether in a model causing only partial damage to pancreatic islet β-cells, whether the compounds of this invention would be helpful. Eight-week-old Wistar female rats received two doses of STZ administered intraperitoneally (60 or 35 mg/kg in 0.1M Citrate buffer; at 5-day intervals), which induced diabetes in all animal, since not all rats that received a single injection of STZ became diabetic in this model. These animals were then treated every 3 days with a subcutaneous injection of compound AGS-500 (6 mg/kg) for from 2-5 weeks to generate a Type I Diabetes phenotype. Blood glucose levels were monitored every 3 days in the rats. Ten weeks after the beginning of this study, each mice group was divided into 2 sub-groups, one of each also received insulin (4 U\\Kg) every 2 days, except for the non-diabetic sub-groups. Acetic acid (1%) served as the vehicle control. Diabetes was diagnosed when non-fasting blood glucose levels were above 200 mg/dl. Extension of these studies included treatment of rats divided into 4 groups, as follows: 3 groups received 2 injections of STZ (35 mg/kg) at day 0′ and day 15′, serving as the diabetic group, while the non-diabetic group received 2 injections of Citrate buffer in accordance with the stated schedule. One diabetic group was administered AGS-500 intraperitoneally (6 mg/kg) every 12 hours (12 h) starting at day 4′, the second diabetic group received DMSO every 12 h starting at day 4′, and a third diabetic group was not injected with either AGS-500 or DMSO."}, "[4]": {"test_system": "STZ-induced diabetic ICR mice", "assay": "Blood glucose over time in STZ mice, short course (2 weeks) AGS treatment with or without insulin", "format": "in vivo, mouse", "description": "as §1, §2"}, "[5]": {"test_system": "islets isolated from ICR mice", "assay": "γ-H2AX staining in isolated islet cells treated with STZ", "format": "cell-based, mouse", "settings": "STZ 1.5 mM; AGS-500 50 nM, 100 nM, 250 nM; 4 hours", "description": "Islets were isolated from 8-10-week-old ICR mice. 30 islets in each group were treated with STZ (1.5 mM) and DMSO or AGS-500 in various concentrations (50 nM, 100 nM, 250 nM) for 4 hours. After 4 h incubation, the islets were enzymatically separated to single cells, cyto-spun and stained with γ-H2AX-specific antibody (A; representative picture—γ-H2AX (light grey), Dapi (dark grey)). Magnification: ×60.\nThe treatment of rats with AGS-compounds maintained a large β-cell mass in STZ-treated rats. In order to determine whether β-cell mass preservation was a result islet cell protection from STZ-induced DNA damage, γ-H2AX staining was assessed. Phosphorylated gamma H2AX (γ-H2AX) is essential for recognition and repair of DNA double strand breaks. H2AX histone becomes rapidly phosphorylated at its carboxyl terminus to form the so-called γ-H2AX at double strand break sites.\nIslets were isolated from 8-10-week-old ICR mice and were treated with STZ (1.5 mM) and DMSO or AGS-500 in various concentrations (50 nM, 100 nM, 250 nM) for 4 hours. After a 4 h incubation, the islets were separated into single cells, cyto-spun, and stained with anti-γ-H2AX-specific antibody for the detection of DNA double strand breaks (FIG. 6)."}, "[6]": {"settings": "STZ rats, AGS-500 6 mg/kg s.c. every 3 days"}},
  "note": "“Also recorded” adds a separate entry of the source.",
  "data": [
    {"compound": "CC(c1cc(Br)c(O)c(Br)c1)(c1cc(Br)c(O)c(Br)c1)c1cc(Br)c(O)c(Br)c1", "note": "[AGS-500, 1,1,1-tris (4-hydroxy-3,5-dibromo-phenyl)-ethane]", "values": [
      {"measurement": "mean blood glucose levels in a glucose tolerance test", "setting": "[1]; 6 mg/Kg subcutaneously or orally every other day, FIG. 11", "result": "reduced mean blood glucose levels"},
      {"measurement": "effect of adding insulin on circulating glucose levels in a glucose tolerance test", "setting": "[1]; AGS subcutaneously (AGS500 also orally), FIG. 12", "result": "adding insulin did not appreciably lower the circulating levels"},
      {"measurement": "β-cell Mass in STZ-injected mice", "setting": "[2]; immunofluorescence, FIG. 5C", "result": "preserved β-cell Mass"},
      {"measurement": "No of insulin expressing beta islets/mouse", "setting": "[2]; no insulin, daily", "result": 5.6},
      {"measurement": "increase in Insulin expressing Beta islets", "setting": "[2]; no insulin, daily", "result": 215, "unit": "%"},
      {"measurement": "No of insulin expressing beta islets/mouse", "setting": "[2]; no insulin, every 48 hrs", "result": 5},
      {"measurement": "increase in Insulin expressing Beta islets", "setting": "[2]; no insulin, every 48 hrs", "result": 192, "unit": "%"},
      {"measurement": "No of insulin expressing beta islets/mouse", "setting": "[2]; with insulin, AGS daily", "result": 2.5},
      {"measurement": "No of insulin expressing beta islets/mouse", "setting": "[2]; with insulin, AGS every 48 hrs", "result": 3},
      {"measurement": "increase in Insulin expressing Beta islets", "setting": "[2]; with insulin, AGS every 48 hrs", "result": 115, "unit": "%"},
      {"measurement": "Blood glucose levels", "setting": "[3]; [6]", "result": "275 ± 18", "unit": "mg/dL"},
      {"measurement": "effect on the rat hyperglycemic state", "setting": "[3]; [6]", "result": "no effect"},
      {"measurement": "blood glucose levels of non-fasting animals", "setting": "[3]; rats, STZ 35 mg/kg day 0 and 15, AGS-500 6 mg/kg i.p. every 12 h from day 4, FIG. 1A", "result": "No reduction"},
      {"measurement": "fasting glucose levels (following 12 h fast)", "setting": "[3]; rats, STZ 35 mg/kg day 0 and 15, AGS-500 6 mg/kg i.p. every 12 h from day 4, FIG. 1B", "result": "significant reduction of blood glucose levels to normal; also recorded: Reduction in Blood Glucose Level"},
      {"measurement": "circulating glucose levels over time", "setting": "[4]; 6 mg/Kg every other day, short course (2 weeks), FIG. 13-1", "result": "lowering circulating glucose levels significantly"},
      {"measurement": "circulating glucose levels over time, combined with insulin therapy", "setting": "[4]; short course, insulin 0.5-6 units/Kg, FIG. 13-2", "result": "synergistic contribution"},
      {"measurement": "number of γ-H2AX-stained cells", "setting": "[5]", "result": "dose-dependent decrease in the number of γ-H2AX-stained cells; also recorded: Reduced γ-H2AX Staining"}
    ]}
  ]
}
